Format in all cases: cell-based
The test system of one assay is S. pyogenes. Put plainly: Antibacterial activity (MIC). Conditions: Streptococcus pyogenes.
In another assay the test system is E. coli. Put plainly: Antibacterial activity (MIC). Conditions: Escherichia coli.
The next assay relates to S. aureus /Meth. Res. In words: Antibacterial activity (MIC). Conditions: Staphylococcus aureus.
The next assay deals with S. aureus /Pen. Res. Put plainly: Antibacterial activity (MIC). Conditions: Staphylococcus aureus.
A further assay deals with K. pneumoniae. In words: Antibacterial activity (MIC). Conditions: Klebsiella pneumoniae.
The next assay concerns S. faecalis. In words: Antibacterial activity (MIC). Conditions: Enterococcus faecalis.
For a further assay, the system named is E. cloacae. Put plainly: Antibacterial activity (MIC). Conditions: Enterobacter cloacae.
The subject of another assay is S. aureus /50% serum. Put plainly: Antibacterial activity (MIC), 50% serum. Conditions: Staphylococcus aureus.
The next assay has as its system P. mirabilis. In words: Antibacterial activity (MIC). Conditions: Proteus mirabilis.
The test system of the next assay is S. pneumoniae. Put plainly: Antibacterial activity (MIC). Conditions: Streptococcus pneumoniae.
For a further assay, the system named is S. aureus. In words: Antibacterial activity (MIC). Conditions: Staphylococcus aureus.
Setting [1] is: S. aureus /Meth. Res., read-out: MIC.
Where [2] appears, read: S. aureus /Pen. Res., read-out: MIC.

Molecules are shown by their SMILES. In brackets after ≈: the same amount, converted by molar mass. Read-outs that look alike come from different tables or passages of the source.

As to `CC(C)=CC1=C(C(=O)OC(c2ccccc2)c2ccccc2)N2C(=O)C(NC(=O)Cc3ccccc3)[C@H]2SC1` (some centres unmarked) [Ex. 3, Diphenylmethyl 7-phenylacetamido-3-(2-methyl-1-propenyl)-3-cephem-4-carboxylate], the minimum inhibitory concentration (MIC) (usually the lowest concentration found to suppress growth) against S. pyogenes is 0.03 µg/mL (≈ 0.0557 µM); against E. coli (first of two lines) it was 2 µg/mL (≈ 3.71 µM); in the assay with E. coli (second of two lines), 32 µg/mL (≈ 59.4 µM); in the assay with S. aureus /Meth. Res. (setting [1]), more than 125 µg/mL; in the assay with S. aureus /Pen. Res. (setting [2]), 0.5 µg/mL (≈ 0.928 µM); against K. pneumoniae (first of two lines), 4 µg/mL (≈ 7.43 µM). For the same compound, the MIC in the assay on K. pneumoniae (second of two lines) was more than 125 µg/mL; with S. faecalis, 4 µg/mL (≈ 7.43 µM); in the assay with E. cloacae, 63 µg/mL (≈ 117 µM); against S. aureus /50% serum it was 0.06 µg/mL (≈ 0.111 µM); against P. mirabilis, 4 µg/mL (≈ 7.43 µM); against S. pneumoniae it was 0.03 µg/mL (≈ 0.0557 µM).
Turning to `N[C@@H](C(=O)N[C@@H]1C(=O)N2C(C(=O)O)=C(Cl)CS[C@H]12)c1ccccc1` [CEFACLOR, reference compound], the MIC against S. pyogenes is 0.13 µg/mL (≈ 0.353 µM); with E. coli (first of two lines), 1 µg/mL (≈ 2.72 µM); with E. coli (second of two lines), 2 µg/mL (≈ 5.44 µM); in the assay with S. aureus /Meth. Res., more than 125 µg/mL; against S. aureus /Pen. Res., 1 µg/mL (≈ 2.72 µM); in the assay on K. pneumoniae (first of two lines), 0.5 µg/mL (≈ 1.36 µM). Also, the MIC with K. pneumoniae (second of two lines) is 63 µg/mL (≈ 171 µM); against S. aureus, 0.25 µg/mL (≈ 0.68 µM); against S. faecalis it was 32 µg/mL (≈ 87 µM); against E. cloacae, more than 125 µg/mL; in the assay on S. aureus /50% serum, 1 µg/mL (≈ 2.72 µM); with P. mirabilis, 2 µg/mL (≈ 5.44 µM). In the assay on S. pneumoniae, this compound gave an MIC of 0.13 µg/mL (≈ 0.353 µM).
In the case of `CC1=C(C(=O)O)N2C(=O)[C@@H](NC(=O)[C@H](N)c3ccccc3)[C@H]2SC1` [CEPHALEXIN, reference compound], the MIC with S. pyogenes is 0.25 µg/mL (≈ 0.72 µM); in the assay with E. coli (first of two lines), 4 µg/mL (≈ 11.5 µM); with E. coli (second of two lines), 4 µg/mL (≈ 11.5 µM); against S. aureus /Meth. Res., more than 125 µg/mL; in the assay with S. aureus /Pen. Res. it was 8 µg/mL (≈ 23 µM); in the assay with K. pneumoniae (first of two lines), 4 µg/mL (≈ 11.5 µM). The MIC with K. pneumoniae (second of two lines) was 63 µg/mL (≈ 181 µM); in the assay with S. aureus, 0.5 µg/mL (≈ 1.44 µM); in the assay with S. faecalis, 63 µg/mL (≈ 181 µM); with E. cloacae, more than 125 µg/mL; against S. aureus /50% serum it was 1 µg/mL (≈ 2.88 µM); against P. mirabilis it was 4 µg/mL (≈ 11.5 µM). The MIC with S. pneumoniae is 0.5 µg/mL (≈ 1.44 µM).
In the case of `CC#CC1=C(C(=O)OC(c2ccccc2)c2ccccc2)N2C(=O)C(NC(=O)Cc3ccccc3)[C@H]2SC1` (some centres unmarked) [Ex. 2, Diphenylmethyl 7-phenylacetamido-3-(1-propynyl)-3-cephem-4-carboxylate], the MIC is 4 µg/mL (≈ 7.65 µM) against S. pyogenes; 16 µg/mL (≈ 30.6 µM) in the assay on E. coli (first of two lines); 16 µg/mL (≈ 30.6 µM) against E. coli (second of two lines); more than 16 µg/mL in the assay with S. aureus /Meth. Res. (setting [1]); 8 µg/mL (≈ 15.3 µM) in the assay with S. aureus /Pen. Res. (setting [2]); 16 µg/mL (≈ 30.6 µM) with K. pneumoniae (first of two lines). In addition, the MIC against K. pneumoniae (second of two lines) is more than 16 µg/mL; in the assay on S. aureus it was 4 µg/mL (≈ 7.65 µM); in the assay with S. faecalis, 16 µg/mL (≈ 30.6 µM); in the assay on E. cloacae, more than 16 µg/mL; with S. aureus /50% serum, more than 16 µg/mL; in the assay with P. mirabilis, 16 µg/mL (≈ 30.6 µM). The same compound had an MIC in the assay on S. pneumoniae of 8 µg/mL (≈ 15.3 µM).
For `CC=C=CC1=C(C(=O)O)N2C(=O)C(NC(=O)[C@H](N)c3ccc(O)cc3)C2SC1` (some centres unmarked) [Ex. 14], the MIC against S. pyogenes is 2 µg/mL (≈ 4.98 µM); in the assay on E. coli (first of two lines), more than 63 µg/mL; with E. coli (second of two lines) it was more than 63 µg/mL; with S. aureus /Meth. Res. (setting [1]), more than 63 µg/mL; in the assay with S. aureus /Pen. Res. (setting [2]) it was 63 µg/mL (≈ 157 µM); in the assay with K. pneumoniae (first of two lines) it was more than 63 µg/mL. Also, the MIC against K. pneumoniae (second of two lines) is more than 63 µg/mL; with S. aureus, 8 µg/mL (≈ 19.9 µM); with S. faecalis, more than 63 µg/mL; in the assay with E. cloacae, more than 63 µg/mL; against S. aureus /50% serum it was 32 µg/mL (≈ 79.7 µM); against P. mirabilis it was 63 µg/mL (≈ 157 µM). Also, 2 µg/mL (≈ 4.98 µM) was the least that counted as inhibitory against S. pneumoniae (MIC).
With `C/C=C\C1=C(C(=O)OC(c2ccccc2)c2ccccc2)N2C(=O)C(NC(=O)Cc3ccccc3)[C@H]2SC1` (some centres unmarked) [Ex. 1, Diphenylmethyl 7-phenylacetamido-3-(Z-1-propenyl)-3-cephem-4-carboxylate], the minimum inhibitory concentration (MIC) is 0.016 µg/mL (≈ 0.0305 µM) against S. pyogenes; 1 µg/mL (≈ 1.91 µM) in the assay with E. coli (first of two lines); 4 µg/mL (≈ 7.62 µM) with E. coli (second of two lines); more than 125 µg/mL in the assay with S. aureus /Meth. Res. (setting [1]); 1 µg/mL (≈ 1.91 µM) in the assay with S. aureus /Pen. Res. (setting [2]); 0.5 µg/mL (≈ 0.953 µM) in the assay with K. pneumoniae (first of two lines). The MIC against K. pneumoniae (second of two lines) was 63 µg/mL (≈ 120 µM); against S. aureus, 0.13 µg/mL (≈ 0.248 µM); against S. faecalis it was 8 µg/mL (≈ 15.2 µM); in the assay on E. cloacae, more than 125 µg/mL; in the assay on S. aureus /50% serum it was 0.5 µg/mL (≈ 0.953 µM); in the assay on P. mirabilis it was 1 µg/mL (≈ 1.91 µM). Moreover, in the assay on S. pneumoniae, the lowest concentration to inhibit growth (MIC) was 0.03 µg/mL (≈ 0.0572 µM).

Values taken from patent US4870168A, “3-Unsaturated alkyl cephems from 3-triflyl cephems” (Bristol-Myers Company, priority 1987, dated 1989).
